The source of these data is patent EP2712863B1, “Novel inhibitors of bacterial biofilms and related methods” (Sequoia Sciences, Inc., priority 2012, dated 2014).

One experiment concerns E. coli. The experiment in a line: Biofilm growth assay (spreading biofilm on semi-solid agar). It counts as cell-based. The note with it: for IC85: Escherichia coli. An outline of the steps: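 Spreading (swarming) biofilm on semi-solid agar: E. coli on LB with 0.6% agar and 0.5% glucose; P. aeruginosa on M8 agar with 0.2% glucose, 100 µM CaCl2, 1 mM MgSO4, 0.5% Casamino acids. Compound in medium; 5 µL overnight culture spotted centrally, 37°C overnight. Value: concentration (µg/ml) giving ≥85% reduction in spread area versus negative control.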

The next experiment deals with P. aeruginosa. The experiment is described as above. It is filed as cell-based. The conditions noted are these: for IC85: Pseudomonas aeruginosa.
Setting [1] is: Table 4, concentration that reduces the area of the spreading biofilm by >= 85%, read-out: E. coli.
The mark [2] stands for this setting: Table 4, concentration that reduces the area of the spreading biofilm by >= 85%, read-out: P. aeruginosa.
Where [3] appears, read: Table 2, concentration that reduces the area of the spreading biofilm by >= 85%, read-out: E. coli.
Setting [4] is: Table 2, concentration that reduces the area of the spreading biofilm by >= 85%, read-out: P. aeruginosa.
[5] abbreviates: Table 4, concentration that reduces the area of the spreading biofilm by >= 85%.
The mark [6] stands for this setting: Table 2, concentration that reduces the area of the spreading biofilm by >= 85%.
The mark [7] stands for this setting: Table 1, concentration that reduces the area of the spreading biofilm vs negative controls by >= 85%, > means not effective at this concentration, read-out: E. coli.
Setting [8] is: Table 1, concentration that reduces the area of the spreading biofilm vs negative controls by >= 85%, > means not effective at this concentration, read-out: P. aeruginosa.
Setting [9] is: Table 3, concentration that reduces the area of the spreading biofilm by >= 85%, read-out: E. coli.
The mark [10] stands for this setting: Table 3, concentration that reduces the area of the spreading biofilm by >= 85%, read-out: P. aeruginosa.

In brackets after ≈: the same amount, converted by molar mass. Read-outs that look alike come from different tables or passages of the source. A value given as a limit tells only on which side of the number the result lay.

Turning to `CC1(C)CC[C@]2(C(=O)Nc3cc(N)n[nH]3)CC[C@]3(C)C(=CCC4[C@@]5(C)Cc6c(n[nH]c6N)C(C)(C)C5CC[C@]43C)C2C1` (stereo partly drawn) [Compound 69, (4aS,6aS,6bR,13aR)-12-amino-N-(3-amino-1H-pyrazol-5-yl)-2,2,6a,6b,9,9,13a-heptamethyl-2,3,4,4a,5,6,6a,6b,7,8,8a,9,11,13,13a,13b,14,15b-octadecahydro-1H-chryseno[1,2-f]indazole-4a-carboxamide], the IC85 in the experiment with E. coli (setting [1]) and in the experiment on P. aeruginosa (setting [2]) was 1 µg/mL (≈ 1.74 µM) each time.

For `CN1CCN(c2c([C@]34CCC(C)(C)CC3C3=CCC5[C@@]6(C)Cc7c(n[nH]c7N)C(C)(C)C6CC[C@@]5(C)[C@]3(C)CC4)n[nH]c2O)CC1` (stereo partly drawn) [Compound 89, 3-((4aS,6aS,6bR,13aR)-12-Amino-2,2,6a,6b,9,9,13a-heptamethyl-2,3,4,4a,5,6,6a,6b,7,8,8a,9,11,13,13a,13b,14,15b-octadecahydro-1H-chryseno[1,2-f]indazol-4a-yl)-4-(4-methylpiperazin-1-yl)-1H-pyrazol-5-ol], the IC85 in the experiment on E. coli (read-out: E. coli (µg/ml)) and with P. aeruginosa (read-out: P. aeruginosa (µg/ml)) was 1 µg/mL (≈ 1.59 µM) in each case.

Take `C[C@@H]1c2n[nH]c(N)c2C[C@]2(C)C3CC=C4[C@@H]5CC(C)(C)CC[C@]5(C(=O)O)CC[C@@]4(C)[C@]3(C)CC[C@@H]12` (stereo partly drawn) [Compound 3, (4aS,6aS,6bR,8aS,9S,13aS,15bS)-12-Amino-2,2,6a,6b,9,13a-hexamethyl-2,3,4,4a,5,6,6a,6b,7,8,8a,9,11,13,13a,13b,14,15b-octadecahydro-1H-chryseno[1,2-f]indazole-4a-carboxylic acid]: the results for the IC85 in the experiment with E. coli (setting [3]) and in the experiment on P. aeruginosa (setting [4]) were 1 µg/mL (≈ 2.08 µM) and 0.5 µg/mL (≈ 1.04 µM), respectively.

As to `CC1(C)CC[C@]2(c3nnco3)CC[C@]3(C)C(=CCC4[C@@]5(C)Cc6c(n[nH]c6N)C(C)(C)C5CC[C@]43C)C2C1` (stereo partly drawn) [Compound 67, (4aS,6aS,6bR,13aR)-2,2,6a,6b,9,9,13a-Heptamethyl-4a-(1,3,4-oxadiazol-2-yl)-2,3,4,4a,5,6,6a,6b,7,8,8a,9,11,13,13a,13b,14,15b-octadecahydro-1H-chryseno[1,2-]indazol-12-amine], the “E. coli” value with E. coli (setting [5]) amounted to 2 µg/mL. Besides, the “P. aeruginosa” value in the experiment on P. aeruginosa (setting [5]) amounted to 1 µg/mL.

Regarding `CC1(C)CC[C@]2(C(=O)O)CC[C@]3(C)C(=CCC4[C@@]5(C)Cc6c(n[nH]c6N)C(C)(C)C5CC[C@]43C)C2C1` (stereo partly drawn) [Compound 2, (4aS,6aS,6bR,13aR)-12-Amino-2,2,6a,6b,9,9,13a-heptamethyl-2,3,4,4a,5,6,6a,6b,7,8,8a,9,11,13,13a,13b,14,15b-octadecahydro-1H-chryseno[1,2-f]indazole-4a-carboxylic acid], the “E. coli” value with E. coli (setting [6]) is 1 µg/mL. The “P. aeruginosa” value in the experiment with P. aeruginosa (setting [6]) is 0.5 µg/mL.

Take `CC1=C2[C@@H]3CC(C)(C)CC[C@]3(C(=O)O)CC[C@@]2(C)[C@]2(C)CC[C@H]3C(C)(C)c4n[nH]c(N)c4C[C@]3(C)C2C1` (stereo partly drawn) [Compound 4, (4aS,6aS,6bR,8aR,13aR,15bS)-12-Amino-2,2,6a,6b,9,9,13a,15-octamethyl-2,3,4,4a,5,6,6a,6b,7,8,8a,9,11,13,13a,13b,14,15b-octadecahydro-1H-chryseno[1,2-f]indazole-4a-carboxylic acid]: the IC85 in the experiment on E. coli (setting [3]) was found to be 1 µg/mL (≈ 1.97 µM); in the experiment with P. aeruginosa (setting [4]), 0.25 µg/mL (≈ 0.492 µM).

Turning to `C=C(C)[C@@H]1CC[C@]2(C)CC[C@]3(C)[C@H](CC[C@@H]4[C@@]5(C)CC[C@H](O)C(C)(C)[C@@H]5CC[C@]43C)[C@@H]12` [Lupeol, reference compound], the values for the IC85 with E. coli (setting [7]) and in the experiment with P. aeruginosa (setting [8]) were greater than 8 µg/mL and greater than 16 µg/mL, respectively.

For the molecule `CC1(C)CC[C@]2(C(=O)O)CC[C@]3(C)[C@H](C(=O)C=C4[C@@]5(C)C=C(C#N)C(=O)C(C)(C)[C@@H]5CC[C@]43C)[C@@H]2C1` [L], the IC85 in the experiment with E. coli (setting [7]) and with P. aeruginosa (setting [8]) was greater than 16 µg/mL in each case.

`CC1(C)CC[C@]2(C(=O)O)CC[C@]3(C)C(=C(c4c[nH]cc4CN4CCOCC4)CC4[C@@]5(C)Cc6c(n[nH]c6N)C(C)(C)[C@@H]5CC[C@]43C)[C@@H]2C1` (stereo partly drawn) [Compound 33, (4aS,6aS,6bR,8aR,13aR,15bS)-12-Amino-2,2,6a,6b,9,9,13a-heptamethyl-15-(4-(morpholinomethyl)-1H-pyrrol-3-yl)-2,3,4,4a,5,6,6a,6b,7,8,8a,9,11,13,13a,13b,14,15b-octadecahydro-1H-chryseno[1,2-f]indazole-4a-carboxylic acid]: the figures for the IC85 in the experiment with E. coli (setting [9]) and with P. aeruginosa (setting [10]) were 4 µg/mL (≈ 6.08 µM) and 2 µg/mL (≈ 3.04 µM), respectively.

As to `CC1(C)CC[C@]2(C(=O)Nc3nnc(N)s3)CC[C@]3(C)C(=CCC4[C@@]5(C)Cc6c(n[nH]c6N)C(C)(C)C5CC[C@]43C)C2C1` (stereo partly drawn) [Compound 71, (4aS,6aS,6bR,13aR)-12-Amino-N-(5-amino-1,3,4-thiadiazol-2-yl)-2,2,6a,6b,9,9,13a-heptamethyl-2,3,4,4a,5,6,6a,6b,7,8,8a,9,11,13,13a,13b,14,15b-octadecahydro-1H-chryseno[1,2-f]indazole-4a-carboxamide], the results for the IC85 with E. coli (setting [1]) and in the experiment with P. aeruginosa (setting [2]) were 2 µg/mL (≈ 3.38 µM) and 0.5 µg/mL (≈ 0.845 µM), respectively.

With `CC1(C)CC[C@]2(C(=O)O)CC[C@]3(C)C(=C(c4c[nH]c5ccccc45)CC4[C@@]5(C)Cc6c(n[nH]c6N)C(C)(C)[C@@H]5CC[C@]43C)[C@@H]2C1` (stereo partly drawn) [Compound 8, (4aS,6aS,6bR,8aR,13aR,15bS)-12-Amino-15-(1H-indol-3-yl)-2,2,6a,6b,9,9,13a-heptamethyl-2,3,4,4a,5,6,6a,6b,7,8,8a,9,11,13,13a,13b,14,15b-octadecahydro-1H-chryseno[1,2-f]indazole-4a-carboxylic acid], the IC85 with E. coli (setting [3]) came to 1 µg/mL (≈ 1.64 µM); in the experiment with P. aeruginosa (setting [4]), 0.25 µg/mL (≈ 0.411 µM).

For `CC1(C)CC[C@]2(C(=O)O)CC[C@]3(C)C(=CCC4[C@@]5(C)Cc6c[nH]nc6C(C)(C)C5CC[C@]43C)C2C1` (some centres unmarked) [D], the IC85 is 4 µg/mL (≈ 8.36 µM) in the experiment on E. coli (setting [7]) and 1 µg/mL (≈ 2.09 µM) in the experiment on P. aeruginosa (setting [8]).

On to `CC1(C)CC[C@]2(C(=O)O)CC[C@]3(C)C(=C(c4ccc(N5CCNCC5)nc4)CC4[C@@]5(C)Cc6c(n[nH]c6N)C(C)(C)C5CC[C@]43C)C2C1` (stereo partly drawn) [Compound 55, (4aS,6aS,6bR,13aR)-12-Amino-2,2,6a,6b,9,9,13a-heptamethyl-15-(6-(piperazin-1-yl)pyridin-3-yl)-2,3,4,4a,5,6,6a,6b,7,8,8a,9,11,13,13a,13b,14,15b-octadecahydro-1H-chryseno[1,2-f]indazole-4a-carboxylic acid], for which the IC85 in the experiment with E. coli (setting [9]) was 2 µg/mL (≈ 3.05 µM); with P. aeruginosa (setting [10]), greater than 1 µg/mL.

On to `C=C(C)[C@@H]1CC[C@]2(CO)CC[C@]3(C)[C@H](CC[C@@H]4[C@@]5(C)CC[C@H](O)C(C)(C)[C@@H]5CC[C@]43C)[C@@H]12` [Betulin, reference compound], for which the IC85 with E. coli (setting [7]) is greater than 16 µg/mL; in the experiment on P. aeruginosa (setting [8]), 16 µg/mL (≈ 36.1 µM).

Regarding `CC1(C)CC[C@]2(C(=O)O)CC[C@]3(C)C(=C(c4cncnc4)CC4[C@@]5(C)Cc6c(n[nH]c6N)C(C)(C)[C@@H]5CC[C@]43C)[C@@H]2C1` (stereo partly drawn) [Compound 30, (4aS,6aS,6bR,8aR,13aR,15bS)-12-Amino-2,2,6a,6b,9,9,13a-heptamethyl-15-(pyrimidin-5-yl)-2,3,4,4a,5,6,6a,6b,7,8,8a,9,11,13,13a,13b,14,15b-octadecahydro-1H-chryseno[1,2-f]indazole-4a-carboxylic acid], the IC85 was 1 µg/mL (≈ 1.75 µM) in the experiment on E. coli (setting [9]) and 2 µg/mL (≈ 3.5 µM) in the experiment with P. aeruginosa (setting [10]).

As for `COC(=O)[C@]12CCC(C)(C)CC1C1=CCC3[C@@]4(C)CC[C@H](O)C(C)(C)C4CC[C@@]3(C)[C@]1(C)CC2` (some centres unmarked) [Oleanolic acid methyl ester, reference compound], the IC85 in the experiment on E. coli (setting [7]) and in the experiment on P. aeruginosa (setting [8]) was greater than 16 µg/mL in each case.
